The results in this text go back to patent US20240043514A1, “NOVEL METHOD FOR PRODUCING ANTIBODIES” (TSINGHUA UNIVERSITY, priority 2017, published 2024).

The test system of one test is PBMCs. The test is described as follows: In vitro immunization (IVI) of PBMCs, antigen-specific IgG/IgM production by ELISA. In kind it is cell-based, human. The following applies: 500 nM synthesized TLR7/8 agonist. Here is the method:
PBMCs were washed and diluted with PIV culture medium. Cell density was adjusted to 1*10^^7 cells/ml, treateder with 0.25 mM LLME for about 20 min. Discarded supernatant, and re-suspended cell with PIV culture medium. Adjusted cell density to 9*10^^5 cells/ml. […] Cultured the tissue for 7 days at 37° C., 5% CO2. Changed half of the medium and added factor cocktail on day 7. Cultured the cells for 7-21 days at 37° C., 5% CO2. Collected the supernatant on day 7, day 14, or day 21 for analysis of antibody production by ELISA, whereas the pellets are used for testing gene expression by PCR or RT-PCR. The collected cells were also tested in ELISpot assay for FACS analysis.
Exemplary IVI steps with addition of stimulate factors: • 1. Prepared PBMCs and treat them with LLME. • 2. […] Collected the cells and plate them into 96-well plate at a density of 6*10^4/well. • 4. […] The IgG and IgM level was examined with ELISA assay.
After day7 or day14 with addition of cytokines or antibody-enhancing composition and antigens, supernatants were harvested and added to antigen OVA-coated plates. After 2 hr incubation, a HRP-conjugated anti-human IgG or anti-human IgM was added, the amount of antigen-specific antibody was measured using TMB as substrate. The data represents the mean of 2 replicates; error bars represent SD. One representative data of 3 separate experiments is shown.
Plates were coated with antigen at 5 μg/ml overnight at 4° C. and washed them in PBST (containing 0.5% Tween-20). The plates were blocked with 5% BSA before addition of cell culture supernatants and horseradish peroxidase (HRP)-conjugated detection antibodies (dilutions: 1 in 2,500 for HRP-conjugated IgG-specific antibody (Jackson) and HRP-conjugated IgM-specific antibody. TMB substrates solution was used for measurement. […]
To further test effects of other cytokine or molecules on antibody production, a synthesized TLR7/8 agonist (50 nM and 500 nM) was added to the IVI system in the presence of antigen OVA (2 μg/ml).
An exemplary cytokine, IL1β, was tested. PBMCs were incubated in vitro with OVA, basic, and either some of the known stimulating factors ICOS, CD40L, TLR7/8 agonists or IL1β (in different doses) (1.5*10^^5 cell/well, 96 well plate). After 7 or 14 days, supernatants were harvested, and IgG/IgM antibody production was measured by ELISA assay.
(In general: ELISA stands for enzyme-linked immunosorbent assay.)

The target in a further test is T1, TLR9 (Homo sapiens, UniProt Q9NR96).
T1 sequence (Q9NR96 26-1032): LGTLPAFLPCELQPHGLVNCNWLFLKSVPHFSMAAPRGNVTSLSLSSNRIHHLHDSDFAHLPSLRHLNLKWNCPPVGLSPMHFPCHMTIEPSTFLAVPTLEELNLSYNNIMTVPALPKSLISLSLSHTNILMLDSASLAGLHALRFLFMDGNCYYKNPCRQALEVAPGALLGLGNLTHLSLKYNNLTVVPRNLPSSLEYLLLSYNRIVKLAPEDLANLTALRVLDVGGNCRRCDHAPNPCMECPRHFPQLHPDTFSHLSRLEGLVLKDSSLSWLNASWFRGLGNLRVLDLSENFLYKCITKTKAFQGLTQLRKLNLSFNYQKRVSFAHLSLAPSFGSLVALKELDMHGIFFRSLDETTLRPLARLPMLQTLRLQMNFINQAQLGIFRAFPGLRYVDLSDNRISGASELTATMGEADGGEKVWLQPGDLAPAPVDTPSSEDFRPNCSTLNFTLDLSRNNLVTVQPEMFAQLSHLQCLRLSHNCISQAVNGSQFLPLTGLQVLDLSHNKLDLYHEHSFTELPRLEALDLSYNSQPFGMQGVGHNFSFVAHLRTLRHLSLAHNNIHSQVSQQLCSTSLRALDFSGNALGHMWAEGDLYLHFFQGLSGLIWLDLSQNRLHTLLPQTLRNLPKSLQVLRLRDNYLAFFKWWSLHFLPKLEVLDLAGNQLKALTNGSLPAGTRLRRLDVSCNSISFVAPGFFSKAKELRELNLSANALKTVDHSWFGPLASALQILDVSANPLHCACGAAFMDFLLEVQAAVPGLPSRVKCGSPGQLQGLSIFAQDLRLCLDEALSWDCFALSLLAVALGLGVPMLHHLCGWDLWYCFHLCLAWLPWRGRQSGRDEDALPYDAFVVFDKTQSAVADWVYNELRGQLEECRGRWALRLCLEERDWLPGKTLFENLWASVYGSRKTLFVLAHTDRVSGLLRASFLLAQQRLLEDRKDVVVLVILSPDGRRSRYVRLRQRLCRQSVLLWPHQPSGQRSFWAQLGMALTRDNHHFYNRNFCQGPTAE
In words: Inhibition of CpG2006 (TLR9 agonist) by E6446. It is filed as cell-based. The following applies: data not shown. Here is the method:
(§1) E6446 dihydrochloride (E6446-HCL), a synthetic nucleic acid-sensing TLRs antagonist. It's IC50 for CpG2006 (TLR9 agonist) was in the range of 0.01-0.03 uM (data not shown). But it required 2-8 uM (a 100-fold higher concentration) to inhibit the effect of R848 (TLR7/8 agonist) (data not shown).

A further test relates to TLR7/8. The test is described as follows: Inhibition of the effect of R848 (TLR7/8 agonist) by E6446. In kind it is cell-based. Here is the method: as §1
The subject of test [1] is Follicular dendritic cells (FDCs). In words: Flow cytometry of follicular dendritic cells (CD3-CD19-CD21+/CD35+) in PBMCs. It is filed as cell-based, human. The following applies: high concentration of E6446 (10 uM), with TLR7/8 agonist. Here is the method:
FIGS. 12A-12G show the interactive effects between synthesized TLR7/8 agonist and TLR9 antagonist in stimulating anti-OVA antibody production in PBMCs. At low concentrations (0.02-0.2 uM), the E6446 enhanced the effect of synthesized TLR7/8, whereas at a high concentration (10 uM), E6446 inhibited this effect. Enzyme-linked immunosorbent assay (ELISA) analysis of OVA-specific antibodies of IgG (FIGS. 12A and 12D) and IgM (FIGS. 12B and 12E) responses were performed 7 days or 14 days after stimulant incubation. Cell proliferation (FIGS. 12C and 12F) was assayed by CellTiter-glo kit. Cells were harvested and tested by Flow cytometry (G). Follicular dendritic cells (FDCs) cells were gated as CD3^−CD19^−CD21^+/CD35^+ cells. Note. CD35 and CD21 are dendritic cell (DC) markers which may represent two subpopulations of DCs. The CD21-sub-type is inhibited by high concentration of E6446. […] The data represented the mean of 3 replicates; error bars represented SD. […]
Background: In flow cytometry, cells or beads pass a laser one at a time.

As a reminder, the IC50 is the concentration needed to halve the response being measured. High values mean a need for much substance, low ones inhibition by little substance. In the case of `Cl.Cl.c1cc(-c2nc3ccc(OCCCN4CCCC4)cc3o2)ccc1OCCCN1CCCC1` [E6446 dihydrochloride], the “effect of low concentration E6446 on IgG production with TLR7/8 agonist” value with PBMCs (E6446 0.02 uM and 0.2 uM, 14-day cultures, OVA+IL2+IL21) was “promotes the effects of TLR7/8 agonist on antibody IgG production”. For the same compound, the “effect of high concentration E6446 on IgG and IgM production with TLR7/8 agonist” value in the test on PBMCs (E6446 10 uM, 7-day and 14-day cultures) is on record as “reverses the effects of TLR7/8 agonist”. This compound displayed an IC50 on TLR9 of 10 to 30 nM. Further, in the test on TLR7/8 (TLR7/8 versus TLR9), the “concentration to inhibit R848 relative to IC50 for CpG2006” value was found to be 100 fold. Besides, in the test on TLR7/8 (data not shown), the “concentration required to inhibit the effect of R848 (TLR7/8 agonist)” value lay in the range of 2 to 8 µM. Further, the “CD21-sub-type of dendritic cells” value in test [1] is recorded as “inhibited”.
